Measured values as given in PMC5218480 (PLoS ONE, 2017).

Test system: MV-4-11 cells
Test: Gene expression microarray analysis (Affymetrix PrimeView) and GSEA
Format: cell-based, human
Conditions: ProbeSet 11758779_at; LIST B

Question: How did the “RFU, TMEM50B” value turn out when Nc1ccc(-c2cccs2)cc1NC(=O)c1ccc2c(c1)cc(C1CC1)n2CCN1CCOCC1 [ACY-1035] was run?
Answer: 85.32 RFU
